According to patent publication US5686458A, “Quinazoline deriviates for treating peptic ulcer” (Yuhan Corporation, priority 1992, dated 1997):
Where a name gives a salt, the structure may show the parent alone.

Key:
[1] = molecular target: T1, Proton Pump (H^+ /K^+ ATPase) (Oryctolagus cuniculus, UniProt P27112); test: Inhibition of Proton Pump (H+/K+ ATPase) Activity, in vitro enzyme reaction (Experiment 1); format: biochemical, New Zealand white rabbit; conditions: for Effect ratio: IC50 of Omeprazole / IC50 of test compound; for IC50: K+-stimulated H+/K+ ATPase activity, rabbit gastric microsomes, pH 7.2, 37° C., 15 min prereaction, 30 min reaction, read-out: IC50 of test compound, inhibition (50%) of the proton pump activity
T1 construct: The microsomes thus obtained were used as an enzyme source of the in vitro enzyme reaction study of proton pump; from tissue; host or cells: rabbit stomach, mucosal scrapings, microsomes (180,000 g pellet)
T1 sequence (P27112 whole entry): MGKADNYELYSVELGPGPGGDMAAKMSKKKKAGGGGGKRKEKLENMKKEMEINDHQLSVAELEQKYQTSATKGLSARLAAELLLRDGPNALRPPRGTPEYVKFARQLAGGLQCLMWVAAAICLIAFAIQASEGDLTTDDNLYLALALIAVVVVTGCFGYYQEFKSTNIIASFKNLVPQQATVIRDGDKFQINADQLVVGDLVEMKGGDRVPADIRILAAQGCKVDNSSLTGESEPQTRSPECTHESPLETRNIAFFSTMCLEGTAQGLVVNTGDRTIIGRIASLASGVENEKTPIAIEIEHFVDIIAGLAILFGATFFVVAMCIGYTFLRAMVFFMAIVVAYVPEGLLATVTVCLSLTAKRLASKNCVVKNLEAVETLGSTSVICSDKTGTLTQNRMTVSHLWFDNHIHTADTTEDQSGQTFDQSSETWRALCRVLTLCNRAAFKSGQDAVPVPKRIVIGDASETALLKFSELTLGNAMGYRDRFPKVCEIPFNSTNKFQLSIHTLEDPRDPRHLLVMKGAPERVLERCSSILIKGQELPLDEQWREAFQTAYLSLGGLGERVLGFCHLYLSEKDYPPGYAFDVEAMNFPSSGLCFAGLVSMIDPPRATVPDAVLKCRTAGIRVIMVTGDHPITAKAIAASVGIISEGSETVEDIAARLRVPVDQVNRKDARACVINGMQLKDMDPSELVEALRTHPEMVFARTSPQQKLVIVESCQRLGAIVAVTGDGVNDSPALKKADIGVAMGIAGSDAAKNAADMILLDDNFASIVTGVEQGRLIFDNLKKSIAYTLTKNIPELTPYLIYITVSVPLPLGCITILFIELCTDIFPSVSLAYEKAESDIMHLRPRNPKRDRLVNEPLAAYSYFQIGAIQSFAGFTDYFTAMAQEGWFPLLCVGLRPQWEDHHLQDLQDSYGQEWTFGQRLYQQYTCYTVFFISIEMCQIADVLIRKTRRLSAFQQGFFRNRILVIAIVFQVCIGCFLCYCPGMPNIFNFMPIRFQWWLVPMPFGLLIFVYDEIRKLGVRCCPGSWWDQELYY
T1 sequence (P18597 whole entry partner): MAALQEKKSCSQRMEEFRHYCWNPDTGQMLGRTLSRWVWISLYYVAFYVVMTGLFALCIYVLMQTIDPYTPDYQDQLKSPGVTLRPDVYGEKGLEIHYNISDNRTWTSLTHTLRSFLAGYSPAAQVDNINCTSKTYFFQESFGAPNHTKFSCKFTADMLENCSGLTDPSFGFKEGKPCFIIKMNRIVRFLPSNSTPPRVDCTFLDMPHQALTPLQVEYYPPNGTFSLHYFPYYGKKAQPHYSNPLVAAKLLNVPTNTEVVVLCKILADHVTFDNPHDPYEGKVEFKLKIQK
Method: A New Zealand white rabbit was killed by blowing its head and the stomach was taken out. The contents of the stomach were removed and the stomach walls were washed with was saline. The inner wall of the stomach was scratched out with a slide glass and the cells thus obtained were homogenized in 0.25M sucrose buffer by means of a Teflon-glass homogenizer. The homogenous solution was centrifuged at 10,000 g for 10 minutes and the supernatant was further centrifuged at 20,000 g for 20 minutes. The supernatant thus obtained was centrifuged at an ultra-high speed of 180,000 g for 1 hour. The pellets precipitated were collected by discarding the supernatant and suspended in 50 mM Tris-HCl buffer having pH 7.2. The suspension was dialyzed twice with the same buffer(of 1,000 times volume) for 3 hours and stored into liquid nitrogen.
The above centrifugation and dialysis were carried out at 4° C. The microsomes thus obtained were used as an enzyme source of the in vitro enzyme reaction study of proton pump.
The inhibitory effects of proton pump activity by the compounds of the present invention were measured by the in vitro enzyme reaction study. The proton pump activity stimulated by Mg^++ was used as a negative comparative group, and the activity stimulated by Mg^++ and K^+ was used as a positive comparative group. The comparative compound was omeprazole.
Test tubes were divided into 4 groups: Group 1 as negative comparative group(n=3), Group 2 as positive comparative group(n=3), Group 3(n=5) to be administered with the compound of the present invention and Group 4(n=5) to be administered with the comparative compound. The inhibitory effects of proton pump activity of Groups 3 and 4 were measured by employing the compound prepared in Example 34 and omeprazole, respectively, each of which was dissolved in dimethylsulfoxide at 5 different concentrations.
To each of Groups 1, 2, 3 and 4, were added 0.1 ml of magnesium chloride(40 mM) dissolved in 50 mM Tris-HCl buffer (pH 7.2) and […] of the enzyme source prepared in Experiment 1-1. Then, 0.1 ml of potassium chloride(500 mM) and 0.1 ml of ammonium chloride(100 mM) dissolved in 50 mM Tris-HCl buffer(pH 7.2) were added to all groups except for Group 1.
0.1 ml of dimethylsulfoxide was added to each of Groups 1 and 2; and to Group 3 was added 0.01 ml of the solution in which the compound prepared in Example 34 was dissolved in dimethylsulfoxide at 5 different concentrations. To Group 4, 0.01 ml of the solution prepared by dissolving omprazole in dimethylsulfoxide at 5 different concentrations(37.6, 21.4, 12.2, 7.0 and 4.0 μM) was added. 50 mM Tris-HCl buffer was added thereto so as to make the total volume 0.4 ml.
Thereafter, the test tubes of each Group were placed at 37° C. for 15 minutes for the prereaction. 0.1 ml of ATP solution(33.3 mM), which was prepared by adding Tris-ATP 50 mM to Tris-HCl buffer having pH 7.2, was added until the reaction volume became 0.5 ml. The final concentrations of MgCl2, KCl, NH4 Cl, ATP, enzyme and Tris-HCl were 8 mM, 100 mM, 20 mM, 6.7 mM, 100μg/ml and 50 mM, respectively. After the reaction was carried out at 37° C. for 30 minutes, 25% cold trichloroacetic acid was added to terminate the enzyme reaction. The released inorganic phosphate was measured by an automatic analyzer(SBA 300, Gilford).
The difference between Group 1 and Group 2 represents the proton pump activity activated by K^+ only. The inhibition percentages of Groups 3 and 4 were calculated from Litchfield-wilcoxon equation[see J. Pharmacol. Exptl. Ther. 96, 99(1949)]. The concentrations of the test compounds which inhibit 50% of the proton pump activity are represented as IC50 in Table 1.

[2] = system: gastric secretion; test: Inhibition of Gastric Secretion, pylorus-ligated rats (Experiment 2); format: in vivo, Sprague-Dawley rats
Method: In accordance with the method disclosed in Shay, H., et al., Gastroenterology 5, 43-61(1945), Experiment 2 was carried out.
Sprague-Dawley rats having a body weight of 170±10 g were divided into 3 groups(n=5) and deprived of food for 24 hours before the experiment with free access to water. Under ether anesthesia, the abdomen was incised, and the pylorus was ligated. As a comparative group, Group 1 was administered intraduodenally in a volume of 0.5 ml/200 g of 30% aqueous polyethylene glycol 400 solution. Groups 2 and 3 were administered intraduodenally with the compound of Example 34 and omeprazole, respectively, each of which was suspended in 30% aqueous polyethylene glycol 400 solution at a concentration of 20 mg/kg. After closing the abdominal cavity, the rats were placed for 5 hours and then killed by cervical dislocation. The stomach was extracted to obtain gastric juice.
The gastric juice was centrifuged at 1,000 g to remove precipitates. The amount and acidity of the gastric juice were measured. Relative volumes, relative acid concentrations and relative acid outputs of the test compounds were calculated from equations(I), (II) and (III) and the results are shown in Table 2.
(I) = the average amount of gastric juice of Group 1 - the
average amount of gastric juice of Group 2)/(the average
amount of gastric juice of Group 1 - the average amount
of gastric juice of Group 3)
Relative acid concentration
(II) = (the average acidity of Group 1 - the average
acidity of Group 2)/(the average acidity of Group 1 - the average
(III) = (the total amount of acid output of Group 1 - the
total amount of acid output of Group 2)/(the total amount of acid
output of Group 1 - the total amount of acid output of Group

[3] = relative to omeprazole (equation III), 20 mg/kg intraduodenally, pylorus-ligated rats, 5 hours

SMILES | Effect ratio [1] | IC50 [1] [µM] | Relative Acid Output [2, 3] | Relative Acid Output ([2]; intraduodenal, 20 mg/kg, 5 h)
COc1cccc2c(N3CCc4ccccc4C3)nc(N(C)c3ccc(F)cc3)nc12.Cl [Example 32, 8-Methoxy-2-(4-Fluoro-N-Methyl-Phenylamino)-4-(1,2,3,4-Tetrahydroisoquinoline-2-Yl) Quinazoline Hydrochloride] | > 0.58 | > 16 | 0.43 | –
CN(c1ccc(F)cc1)c1nc(N2CCc3ccccc3C2)c2ccccc2n1.Cl [Example 20, 2-(4-Fluoro-N-Methylphenyl-Amino)-4-(1,2,3,4-Tetrahydroisoquinoline-2-Yl)Quinazoline Hydrochloride] | 1.10 | 8.4 | 0.92 | –
Cc1ccccc1Nc1nc(N2CCc3ccccc3C2)c2ccccc2n1 [Example 21, 2-(2-Methylphenylamino)-4-(1,2,3,4-Tetrahydroisoquinoline-2-Yl)QuinazolineHydrochloride] | 6.17 | 1.2 | 0.38 | –
Cc1cc(F)ccc1Nc1nc(N2CCc3ccccc3C2C)c2ccccc2n1.Cl (stereo not drawn) [Example 26, 2-(4-Fluoro-2-Methylphenyl-Amino)-4-(1-Methyl-1,2,3,4-Tetrahydroisoquinoline-2-Yl) Quinazoline Hydrochloride] | 46.00 | 0.4 | 0.25 | –
CC1c2ccccc2CCN1c1nc(N(C)c2ccccc2)nc2ccccc12.Cl (stereo not drawn) [Example 24, 2-(N-Methylphenylamino)-4-(1-Methyl-1,2,3,4-Tetrahydroisoquinoline-2-Yl)Quinazoline Hydrochloride] | ~ 1.29 | ~12.5 | 0.36 | –
Cc1cc(F)ccc1Nc1nc(N2CCc3ccccc3C2)c2ccccc2n1.Cl [Example 22, 2-(4-Fluoro-2-Methylphenyl -Amino)-4-(1,2,3,4-Tetrahydroisoquinoline-2-Yl)Quinazoline Hydrochloride] | 11.29 | 0.7 | 0.64 | –
COc1cccc2c(N3CCc4ccccc4C3)nc(Nc3ccc(F)cc3C)nc12.Cl [Example 31, 8-Methoxy-2-(4-Fluoro-2-Methyl -Phenylamino)-4-(1,2,3,4-Tetrahydroisoquinoline-2-yl) Quinazoline Hydrochloride] | 5.13 | 2 | 0.79 | –
COc1cccc2c(N3CCc4ccccc4C3)nc(Nc3ccccc3)nc12.Cl [Example 28, 8-Methoxy-2-(phenylamino)-4-(1,2,3,4-Tetrahydroisoquinoline-2-Yl)Quinazoline Hydrochloride] | 6.92 | 1.2 | 0.64 | –
Cc1cc(F)ccc1Nc1nc(N2CCc3ccccc3C2C)c2cccc(OCCO)c2n1 (stereo not drawn) [Example 37, 8-(2-Hydroxyethyloxy)-2-(4-Fluoro-2-Methylphenylamino)-4-(1-Methyl-1,2,3,4-Tetrahydroisoquinoline-2-Yl)Quinazoline] | ~ 0.60 | ~12.5 | 0.37 | –
COc1cccc2c(N3CCc4ccccc4[C@@H]3C)nc(Nc3ccc(F)cc3C)nc12.Cl [Example 36, (S)-8-Methoxy-2-(4Fluoro-2-Methylphenylamino)-4-(1-Methyl-1,2,3,4-Tetrahydroisoquinoline-2-Yl)Quinazoline Hydrochloride] | 1.28 | 4 | 0.67 | –

The next lines start with results.

Effect ratio [1] | IC50 [1] [µM] | SMILES | Relative Acid Output [2, 3] | Relative Acid Output ([2]; intraduodenal, 20 mg/kg, 5 h)
1.21 | 6.12 | COc1cccc2c(N3CCc4ccccc4C3(C)C)nc(Nc3ccc(F)cc3C)nc12 [Example 51, 2-(4-Fluoro-2-Methylphenyl-1-Amino)-8-Methoxy-4-(1,1-Dimethyl-1,2,3,4-Tetrahydroisoquinoline-2-Yl)Quinazoline Hydrochloride] | 0.82 | –
< 0.97 | > 12.5 | COc1cccc2c(N3CCc4ccccc4C3CF)nc(Nc3ccc(F)cc3)nc12.Cl (stereo not drawn) [Example 43, 2-(4-Fluorophenylamino)-8-Methoxy-4-(1-Fluoromethyl-1,2,3,4-Tetrahydroisoquinoline-2-Yl)Quinazoline Hydrochloride] | 0.76 | –
0.49 | ~25 | COc1cccc2c(N3CCc4ccccc4C3C3CC3)nc(Nc3ccc(F)cc3C)nc12.Cl (stereo not drawn) [Example 47, 2-(4-Fluoro-2-Methylphenyl-Amino)-8-Methoxy-4-(1-cyclopropyl-1,2,3,4-Tetrahydroisoquinoline-2-Yl)Quinazoline Hydrochloride] | 0.33 | –
~ 0.64 | ~12.5 | COc1cccc2c(N3CCc4cc(C)ccc4C3C)nc(Nc3ccc(F)cc3)nc12.Cl (stereo not drawn) [Example 54, 2-(4-Fluorophenylamino)-8-Methoxy-4-(1,6-Dimethyl-1,2,3,4-Tetrahydroisoquinoline-2-Yl)Quinazoline Hydrochloride] | 0.82 | –
< 0.60 | > 12.5 | COc1cccc2c(N3CC(C)c4ccccc4C3C)nc(Nc3ccc(F)cc3)nc12.Cl (stereo not drawn) [Example 56, 2-(4-Fluorophenylamino)-8-Methoxy-4-(1,4-Dimethyl-1,2,3,4-Tetrahydroisoquinoline-2-Yl)Quinazoline Hydrochloride] | 0.85 | –
0.46 | 8.9 | CCC1c2ccccc2CCN1c1nc(Nc2ccc(F)cc2)nc2c(OC)cccc12.Cl (stereo not drawn) [Example 45, 8-Methoxy-2-(4-Fluorophenyl-Amino)-4-(1-Ethyl-1,2,3,4-Tetrahydroisoquinoline-2-Yl) Quinazoline Hydrochloride] | – | -0.06
< 0.18 | 12.5 | COc1cccc2c(N3CCc4ccccc4C3C(F)(F)F)nc(Nc3ccc(F)cc3C)nc12.Cl (stereo not drawn) [Example 42, 2-(4-Fluoro-2-Methylphenyl-Amino)-8-Methoxy-4-(1-Trifluoromethyl-1,2,3,4-Tetrahydroisoquinoline-2-Yl)Quinazoline Hydrochloride] | 0.42 | –
